Experiments:
Assay type in all cases: in vivo
[1] = test system: field corn (Zea mays L., var. Dekalb 535, CORN); test: Pre-emerge test, crop safety; settings: rating scale 0-100, 14 days after application
Procedure, shortened: (§1)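 Visual ratings on a 0-100 scale (0 no damage, 100 all plants dead) were taken at 14 days after treatment. Rates of 15-1000 g ai/ha in acetone, 187 l/ha, were sprayed onto soil one day after planting (pre-emerge) or onto 2-3 leaf plants with 0.25% v/v surfactant (post-emerge).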

[2] = test system: upland rice (Oryza sp., var. Tebonnet, RICE); test: Pre-emerge test, crop safety; settings: rating scale 0-100, 14 days after application
Procedure, shortened: as §1

[3] = test system: common ragweed (Ambrosia artemisizfolia L., AMBEL); test: Post-emerge test, greenhouse herbicide activity screening; settings: post-emerge, 14 days after application, rating scale 0-100
Procedure, shortened: (§2)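 Fourteen days after spraying, crop and weed injury was graded visually from 0, no effect, to 100, every plant dead. Test substances were dissolved in acetone and applied at 15–1000 g ai/ha with a flat-fan nozzle. Application was either pre-emergence, one day after sowing, or post-emergence at the 2–3 leaf stage.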

[4] = test system: large crabgrass (Digitaria sanguinalis, DIGSA); test: as above; settings: 14 days after application; for Post-emerge Herbicidal Activity DIGSA (phytotoxicity rating): rating scale 0-100; for Post-emerge Herbicidal Activity, phytotoxicity rating DIGSA: rating scale 0-100 (0 no damage, 100 complete death)
Procedure, shortened: as §2

[5] = test system: sicklepod (Cassia obtusifolia, CASOB); test: as above; settings: 14 days after application; for Post-emerge Herbicidal Activity CASOB (phytotoxicity rating): rating scale 0-100; for Post-emerge Herbicidal Activity, phytotoxicity rating CASOB: rating scale 0-100 (0 no damage, 100 complete death)
Procedure, shortened: as §2

[6] = test system: redroot pigweed (Amaranthus retroflexus, AMARE); test: as above; settings: 14 days after application
Procedure, shortened: as §2

[7] = test system: velvetleaf (Abutilon theophrasti, ABUTH); test: as above; settings: 14 days after application; for Post-emerge Herbicidal Activity ABUTH (phytotoxicity rating): rating scale 0-100; for Post-emerge Herbicidal Activity, phytotoxicity rating ABUTH: rating scale 0-100 (0 no damage, 100 complete death)
Procedure, shortened: as §2

[8] = test system: green foxtail (Setaria viridis, SETVI); test: as above; settings: 14 days after application; for Post-emerge Herbicidal Activity SETVI (phytotoxicity rating): rating scale 0-100; for Post-emerge Herbicidal Activity, phytotoxicity rating SETVI: rating scale 0-100 (0 no damage, 100 complete death)
Procedure, shortened: as §2

[9] = test system: ivyleaf morningglory (Ipomoea hederacea, IPOHE); test: as above; settings: 14 days after application; for Post-emerge Herbicidal Activity IPOHE (phytotoxicity rating): rating scale 0-100; for Post-emerge Herbicidal Activity, phytotoxicity rating IPOHE: rating scale 0-100 (0 no damage, 100 complete death)
Procedure, shortened: as §2

[10] = test system: lambsquarters (Chenopodium album, CHEAL); test: as above; settings: 14 days after application; for Post-emerge Herbicidal Activity CHEAL (phytotoxicity rating): rating scale 0-100; for Post-emerge Herbicidal Activity, phytotoxicity rating CHEAL: rating scale 0-100 (0 no damage, 100 complete death)
Procedure, shortened: as §2

[11] = test system: johnsongrass (Sorghum halepense, SORHA); test: as above; settings: rating scale 0-100 (0 no damage, 100 complete death), 14 days after application
Procedure, shortened: as §2

[12] = test system: barnyardgrass (Echinochloa crus-galli, ECHCG); test: as above; settings: 14 days after application; for Post-emerge Herbicidal Activity ECHCG (phytotoxicity rating): rating scale 0-100; for Post-emerge Herbicidal Activity, phytotoxicity rating ECHCG: rating scale 0-100 (0 no damage, 100 complete death)
Procedure, shortened: as §2

[13] = test system: redroot pigweed (Amaranthus retroflexus, AMARE); test: Pre-emerge test, greenhouse herbicide activity screening; settings: rating scale 0-100, 14 days after application
Procedure, shortened: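 Herbicidal damage is scored 0 (none) to 100 (complete plant death) two weeks after a simulated field spray. Rates span 15–1000 g ai/ha, delivered in acetone at 187 l/ha. For post-emergence treatments, plants have 2–3 leaves and the spray carries 0.25% v/v non-ionic surfactant.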

[14] = test system: field corn (Zea mays L., var. Dekalb 535, CORN); test: Post-emerge test, crop safety; settings: 14 days after application; for Post-emerge Herbicidal Activity CORN (crop damage rating): rating scale 0-100; for Post-emerge phytotoxicity rating CORN (crop damage): rating scale 0-100 (0 no damage, 100 complete death)
Procedure, shortened: (§3)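 Compounds in acetone were track-sprayed at 15-1000 g ai/ha (187 l/ha) on sandy loam pots: pre-emerge one day after seeding, post-emerge at 2-3 leaf stage with 0.25% v/v non-ionic surfactant. Phytotoxicity was rated 14 days later on a 0 (no damage) to 100 (complete death) scale.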

[15] = test system: upland rice (Oryza sp., var. Tebonnet, RICE); test: Post-emerge test, crop safety; settings: 14 days after application; for Post-emerge Herbicidal Activity RICE (crop damage rating): rating scale 0-100; for Post-emerge phytotoxicity rating RICE (crop damage): rating scale 0-100 (0 no damage, 100 complete death)
Procedure, shortened: as §3

[16] = test system: large crabgrass (Digitaria sanguinalis, DIGSA); test: Pre-emerge test, greenhouse herbicide activity screening; settings: rating scale 0-100, 14 days after application
Procedure, shortened: as §3

[17] = test system: sicklepod (Cassia obtusifolia, CASOB); test: as above; settings: rating scale 0-100, 14 days after application
Procedure, shortened: as §3

[18] = test system: velvetleaf (Abutilon theophrasti, ABUTH); test: as above; settings: rating scale 0-100, 14 days after application
Procedure, shortened: as §3

[19] = test system: green foxtail (Setaria viridis, SETVI); test: as above; settings: rating scale 0-100, 14 days after application
Procedure, shortened: as §3

[20] = test system: ivyleaf morningglory (Ipomoea hederacea, IPOHE); test: as above; settings: rating scale 0-100, 14 days after application
Procedure, shortened: as §3

[21] = test system: lambsquarters (Chenopodium album, CHEAL); test: as above; settings: rating scale 0-100, 14 days after application
Procedure, shortened: as §3

[22] = test system: johnsongrass (Sorghum halepense, SORHA); test: as above; settings: rating scale 0-100, 14 days after application
Procedure, shortened: as §3

[23] = test system: barnyardgrass (Echinochloa crus-galli, ECHCG); test: as above; settings: rating scale 0-100, 14 days after application
Procedure, shortened: as §3

## C#CCOC(=O)C(C)(Cl)Cc1c(OC)c(Cl)cc(F)c1-n1c(=O)cc(C(F)(F)F)n(C)c1=O (stereo not drawn) [14-44]
[1]; 63 g ai/ha
  Pre-emerge phytotoxicity rating, crop damage CORN: 0
[1]; 250 g ai/ha
  Pre-emerge phytotoxicity rating, crop damage CORN: 0
[2]; 63 g ai/ha
  Pre-emerge phytotoxicity rating, crop damage RICE: 0
[2]; 250 g ai/ha
  Pre-emerge phytotoxicity rating, crop damage RICE: 50
[3]; 63 g ai/ha
  Post-emerge Herbicidal Activity AMBEL (phytotoxicity rating): 30
[3]; 250 g ai/ha
  Post-emerge Herbicidal Activity AMBEL (phytotoxicity rating): 40
[4]; 63 g ai/ha
  Post-emerge Herbicidal Activity DIGSA (phytotoxicity rating): 40
[4]; 250 g ai/ha
  Post-emerge Herbicidal Activity DIGSA (phytotoxicity rating): 99
[4]; Rate 63 g ai/ha
  Post-emerge Herbicidal Activity, phytotoxicity rating DIGSA: 100
[4]; Rate 250 g ai/ha
  Post-emerge Herbicidal Activity, phytotoxicity rating DIGSA: 100
[5]; 63 g ai/ha
  Post-emerge Herbicidal Activity CASOB (phytotoxicity rating): 10
[5]; 250 g ai/ha
  Post-emerge Herbicidal Activity CASOB (phytotoxicity rating): 20
[5]; Rate 63 g ai/ha
  Post-emerge Herbicidal Activity, phytotoxicity rating CASOB: 0
[5]; Rate 250 g ai/ha
  Post-emerge Herbicidal Activity, phytotoxicity rating CASOB: 0
[6]; 63 g ai/ha, rating scale 0-100 (0 no damage, 100 complete death)
  Post-emerge Herbicidal Activity AMARE (phytotoxicity rating): 100
[6]; 250 g ai/ha, rating scale 0-100
  Post-emerge Herbicidal Activity AMARE (phytotoxicity rating): 100
[6]; Rate 63 g ai/ha, rating scale 0-100 (0 no damage, 100 complete death)
  Post-emerge Herbicidal Activity, phytotoxicity rating AMARE: 100
[6]; Rate 250 g ai/ha, rating scale 0-100 (0 no damage, 100 complete death)
  Post-emerge Herbicidal Activity, phytotoxicity rating AMARE: 100
[7]; 63 g ai/ha
  Post-emerge Herbicidal Activity ABUTH (phytotoxicity rating): 100
[7]; 250 g ai/ha
  Post-emerge Herbicidal Activity ABUTH (phytotoxicity rating): 100
[7]; Rate 63 g ai/ha
  Post-emerge Herbicidal Activity, phytotoxicity rating ABUTH: 100
[7]; Rate 250 g ai/ha
  Post-emerge Herbicidal Activity, phytotoxicity rating ABUTH: 100
[8]; 63 g ai/ha
  Post-emerge Herbicidal Activity SETVI (phytotoxicity rating): 30
[8]; 250 g ai/ha
  Post-emerge Herbicidal Activity SETVI (phytotoxicity rating): 70
[8]; Rate 63 g ai/ha
  Post-emerge Herbicidal Activity, phytotoxicity rating SETVI: 100
[8]; Rate 250 g ai/ha
  Post-emerge Herbicidal Activity, phytotoxicity rating SETVI: 100
[9]; 63 g ai/ha
  Post-emerge Herbicidal Activity IPOHE (phytotoxicity rating): 30
[9]; 250 g ai/ha
  Post-emerge Herbicidal Activity IPOHE (phytotoxicity rating): 80
[9]; Rate 63 g ai/ha
  Post-emerge Herbicidal Activity, phytotoxicity rating IPOHE: 50
[9]; Rate 250 g ai/ha
  Post-emerge Herbicidal Activity, phytotoxicity rating IPOHE: 90
[10]; 63 g ai/ha
  Post-emerge Herbicidal Activity CHEAL (phytotoxicity rating): 70
[10]; 250 g ai/ha
  Post-emerge Herbicidal Activity CHEAL (phytotoxicity rating): 99
[10]; Rate 63 g ai/ha
  Post-emerge Herbicidal Activity, phytotoxicity rating CHEAL: 100
[10]; Rate 250 g ai/ha
  Post-emerge Herbicidal Activity, phytotoxicity rating CHEAL: 100
[11]; Rate 63 g ai/ha
  Post-emerge Herbicidal Activity, phytotoxicity rating SORHA: 30
[11]; Rate 250 g ai/ha
  Post-emerge Herbicidal Activity, phytotoxicity rating SORHA: 80
[12]; 63 g ai/ha
  Post-emerge Herbicidal Activity ECHCG (phytotoxicity rating): 100
[12]; 250 g ai/ha
  Post-emerge Herbicidal Activity ECHCG (phytotoxicity rating): 100
[12]; Rate 63 g ai/ha
  Post-emerge Herbicidal Activity, phytotoxicity rating ECHCG: 100
[12]; Rate 250 g ai/ha
  Post-emerge Herbicidal Activity, phytotoxicity rating ECHCG: 100
[13]; 63 g ai/ha
  Pre-emerge herbicidal activity, phytotoxicity rating AMARE: 70
[13]; 250 g ai/ha
  Pre-emerge herbicidal activity, phytotoxicity rating AMARE: 100
[14]; 63 g ai/ha
  Post-emerge Herbicidal Activity CORN (crop damage rating): 99
[14]; 250 g ai/ha
  Post-emerge Herbicidal Activity CORN (crop damage rating): 100
[14]; Rate 63 g ai/ha
  Post-emerge phytotoxicity rating CORN (crop damage): 100
[14]; Rate 250 g ai/ha
  Post-emerge phytotoxicity rating CORN (crop damage): 100
[15]; 63 g ai/ha
  Post-emerge Herbicidal Activity RICE (crop damage rating): 5
[15]; 250 g ai/ha
  Post-emerge Herbicidal Activity RICE (crop damage rating): 0
[15]; Rate 63 g ai/ha
  Post-emerge phytotoxicity rating RICE (crop damage): 90
[15]; Rate 250 g ai/ha
  Post-emerge phytotoxicity rating RICE (crop damage): 100
[16]; 63 g ai/ha
  Pre-emerge herbicidal activity, phytotoxicity rating DIGSA: 0
[16]; 250 g ai/ha
  Pre-emerge herbicidal activity, phytotoxicity rating DIGSA: 90
[17]; 63 g ai/ha
  Pre-emerge herbicidal activity, phytotoxicity rating CASOB: 0
[17]; 250 g ai/ha
  Pre-emerge herbicidal activity, phytotoxicity rating CASOB: 0
[18]; 63 g ai/ha
  Pre-emerge herbicidal activity, phytotoxicity rating ABUTH: 80
[18]; 250 g ai/ha
  Pre-emerge herbicidal activity, phytotoxicity rating ABUTH: 100
[19]; 63 g ai/ha
  Pre-emerge herbicidal activity, phytotoxicity rating SETVI: 0
[19]; 250 g ai/ha
  Pre-emerge herbicidal activity, phytotoxicity rating SETVI: 70
[20]; 63 g ai/ha
  Pre-emerge herbicidal activity, phytotoxicity rating IPOHE: 0
[20]; 250 g ai/ha
  Pre-emerge herbicidal activity, phytotoxicity rating IPOHE: 0
[21]; 63 g ai/ha
  Pre-emerge herbicidal activity, phytotoxicity rating CHEAL: 70
[21]; 250 g ai/ha
  Pre-emerge herbicidal activity, phytotoxicity rating CHEAL: 100
[22]; 63 g ai/ha
  Pre-emerge herbicidal activity, phytotoxicity rating SORHA: 0
[22]; 250 g ai/ha
  Pre-emerge herbicidal activity, phytotoxicity rating SORHA: 0
[23]; 63 g ai/ha
  Pre-emerge herbicidal activity, phytotoxicity rating ECHCG: 0
[23]; 250 g ai/ha
  Pre-emerge herbicidal activity, phytotoxicity rating ECHCG: 50

From patent US6355799B1, “Substituted benzene compounds, process for their preparation, and herbicidal and defoliant compositions containing them” (ISK Americas Incorporated, priority 1997, dated 2002)
